According to patent publication US10752587B2, “Homobispiperidinyl derivatives as liver X receptor beta agonists, compositions and their use” (Merck Sharp & Dohme Corp., priority 2015, dated 2020):
Read-outs that look alike come from different tables or passages of the source.

Key:
[1] = molecular target: T1, glutathione-S-transferase (GST) tagged LXRalpha LBD (ligand binding domain) (Homo sapiens, UniProt Q13133); test: LanthaScreen TR-FRET Liver X Receptor Coactivator Assay, co-activator recruitment to LXRalpha LBD; assay type: biochemical; conditions: for Emax: read-out: LXR alpha Activity @ max dose (%); for EC50 / LXR alpha IP (nM): potency (Inflection Point, IP), co-activator recruitment to LXRalpha LBD, in relation to T0901317; for EC50: read-out: LXR alpha IP
T1 construct: purchased Invitrogen pv4655
T1 sequence (Q13133 209-447 limits assumed): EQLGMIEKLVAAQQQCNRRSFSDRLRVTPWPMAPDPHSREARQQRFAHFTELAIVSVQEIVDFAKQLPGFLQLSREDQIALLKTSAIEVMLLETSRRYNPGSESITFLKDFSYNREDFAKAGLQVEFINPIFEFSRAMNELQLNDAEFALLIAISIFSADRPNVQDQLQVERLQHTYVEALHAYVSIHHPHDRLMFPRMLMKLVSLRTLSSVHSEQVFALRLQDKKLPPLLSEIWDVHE
How it was run: (§1)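 Readout is time-resolved FRET between a terbium anti-GST antibody bound to the LBD and a fluorescein-tagged coactivator peptide recruited on ligand binding. Plates were incubated at room temperature before reading. Potency (IP) and efficacy (Emax) are referenced to T0901317.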

[2] = molecular target: T2, glutathione-S-transferase (GST) tagged LXRbeta LBD (ligand binding domain) (Homo sapiens, UniProt P55055); test: LanthaScreen TR-FRET Liver X Receptor Coactivator Assay, co-activator recruitment to LXRbeta LBD; assay type: biochemical; conditions: for Emax: read-out: LXR beta Activity @ max dose (%); for EC50: potency (Inflection Point, IP), co-activator recruitment to LXRbeta LBD, in relation to T0901317
T2 construct: purchased Invitrogen pv4658.pps
T2 sequence (P55055 222-460 limits assumed): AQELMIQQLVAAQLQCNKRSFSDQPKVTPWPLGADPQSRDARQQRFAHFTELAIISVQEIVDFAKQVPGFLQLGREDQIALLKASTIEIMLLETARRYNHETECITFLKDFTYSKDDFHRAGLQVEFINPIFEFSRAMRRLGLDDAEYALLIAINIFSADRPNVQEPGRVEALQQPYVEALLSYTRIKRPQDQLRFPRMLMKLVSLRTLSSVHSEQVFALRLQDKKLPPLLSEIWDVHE
How it was run: as §1

[3] = efficacy at max dose, in relation to reference dual agonist T0901317

With `CN(C)C(=O)c1ccc(N2CCC(CC3CCN(C(=O)C(O)(c4cccnc4)C(F)(F)F)CC3)CC2)nc1Cl` (centres unmarked) [Example 7-66, 2-chloro-N,N-dimethyl-6-(4-{[1-(3,3,3-trifuoro-2-hydroxy-2-pyridin-3-ylpropanoyl)piperidin-4-yl]methyl}piperidin-1-yl)pyridine-3-carboxamide] the Emax [1, 3] was 48%, the EC50 [1] was 1590 nM and the Emax [2, 3] was 108%. It also gave an EC50 ([2]; read-out: LXR beta IP) of 83 nM.

`CN(C)C(=O)c1ccc(N2CCC(SC3CCN(C(=O)[C@](O)(c4cc(Cl)cc(Cl)c4)C(F)(F)F)CC3)CC2)nc1Cl` [Example 9-3, 2-chloro-6-[4-({1-[(2R)-2-(3,5-dichlorophenyl)-3,3,3-trifluoro-2-hydroxypropanoyl]-piperidin-4-yl}-sulfanyl)piperidin-1-yl]-N,N-dimethyl-pyridine-3-carboxamide] was tested, and the Emax [1, 3] was 10%, the “LXR alpha IP (nM)” value [1] was “NO IP” and the Emax [2, 3] was 63%. The EC50 ([2]; read-out: LXR beta IP) was 14 nM.

Work on `CN(C)C(=O)c1ccc(N2CCC(CC3(C)CCN(C(=O)[C@](O)(c4cccc(Cl)c4)C(F)(F)F)CC3)CC2)nc1Cl` [Example 7-47, 2-chloro-6-[4-({1-[(2R)-2-(3-chlorophenyl)-3,3,3-trifluoro-2-hydroxypropanoyl]-4-methylpiperidin-4-yl}methyl)piperidin-1-yl]-N,N-dimethylpyridine-3-carboxamide] yielded an Emax [1, 3] of 22%, an EC50 [1] of 60 nM and an Emax [2, 3] of 66%. For the same molecule, the EC50 ([2]; read-out: LXR beta IP) was 3 nM.

Work on `C[C@H]1CCCN1C(=O)c1ccc(N2CCC(CC3CCN(C(=O)[C@](O)(c4ccccc4)C(F)(F)F)CC3)CC2)cc1Cl` [Example 4-6, (2R)-3-(4-{[1-(3-chloro-4-{[(2S)-2-methyl-pyrrolidin-1-yl]carbonyl}phenyl)piperidin-4-yl]methyl}piperidin-1-yl)-1,1,1-trifluoro-3-trifluoro-3-oxo-2-phenylpropan-2-ol] yielded an Emax [1, 3] of 39%, an EC50 [1] of 331 nM and an Emax [2, 3] of 78%. For the same molecule, the EC50 ([2]; read-out: LXR beta IP) was 38 nM.

With `O=C(c1ccc(N2CCC(CC3CCN(C(=O)[C@](O)(c4cc(Cl)cc(Cl)c4)C(F)(F)F)CC3)CC2)cc1Cl)N1CC[C@@H](O)C1` [Example 4-22, (3R)-1-({2-chloro-4-[4-({1-[(2R)-2-(3,5-dichloro-phenyl)-3,3,3-trifluoro-2-hydroxypropanoyl]piperidin-4-yl}methyl)piperidin-1-yl]phenyl}carbonyl) pyrrolidin-3-ol] the Emax [1, 3] was 0%, the “LXR alpha IP (nM)” value [1] was “NO IP” and the Emax [2, 3] was 38%. For the same molecule, the EC50 ([2]; read-out: LXR beta IP) was 35 nM.

For `CN(C)C(=O)c1ccc(N2CCC(CC3CCN(C(=O)[C@](O)(c4cccc(OCC(F)(F)F)c4)C(F)(F)F)CC3)CC2)cc1Cl` [Example 2-97, 2-chloro-N,N-dimethyl-4-{4-[(1-{(2R)-3,3,3-trifluoro-2-hydroxy-2-[3-(2,2,2-trifluoroethoxy)phenyl]propanoyl}piperidin-4-yl)methyl]piperidin-1-yl}benzamide], the Emax [1, 3] was 0%, the “LXR alpha IP (nM)” value [1] was “NO IP” and the Emax [2, 3] was 20%. For the same molecule, the EC50 ([2]; read-out: LXR beta IP) was 40 nM.

`CN(C)C(=O)c1ccc(N2CCC(CC3CCN(C(=O)C(O)(c4ccccc4)c4ccsc4)CC3)CC2)nc1Cl` (centres unmarked) [Example 7-96, 2-chloro-6-[4-({1-[hydroxy(phenyl)thiophen-3-ylacetyl]piperidin-4-yl}methyl)piperidin-1-yl]-N,N-dimethylpyridine-3-carboxamide] was tested, and the “LXR alpha IP (nM)” value [1] was “NO IP”, the Emax [1] was 5% and the EC50 ([2]; LXR beta IP (nM)) was 89 nM. The Emax [2] was 23%.

`CNC(=O)c1ccc(N2CCC(CC3CCN(C(=O)C4(c5ccccc5F)CCCC4)CC3)CC2)cc1Cl` [Example 7-34, 2-chloro-4-{4-[(1-{[1-(2-fluorophenyl)cyclopentyl]carbonyl}piperidin-4-yl)methyl]piperidin-1-yl}-N-methylbenzamide] showed an Emax [1, 3] of 19%, an EC50 [1] of 2190 nM and an Emax [2, 3] of 82%. The EC50 ([2]; read-out: LXR beta IP) was 169 nM.

For `CN(C)C(=O)c1ncc(N2CCC(CC3CCN(C(=O)C(O)(c4cccc(C(F)(F)F)c4)C(F)(F)F)CC3)CC2)cc1Cl` (centres unmarked) [Example 2-5, 3-chloro-N,N-dimethyl-5-{4-[(1-{3,3,3-trifluoro-2-hydroxy-2-[3-(trifluoromethyl)phenyl]propanoyl}piperidin-4-yl)methyl]piperidin-1-yl}pyridine-2-carboxamide], the Emax [1, 3] was 19%, the EC50 [1] was 752 nM and the Emax [2, 3] was 57%. For the same molecule, the EC50 ([2]; read-out: LXR beta IP) was 29 nM.

With `CN(C)C(=O)c1ccc(N2CCC(OC3CCN(C(=O)[C@](O)(c4ccccc4)C(F)(F)F)CC3)CC2)cc1Cl` [Example 2-11, 2-chloro-N,N-dimethyl-4-[4-({1-[(2R)-3,3,3-trifluoro-2-hydroxy-2-phenylpropanoyl]piperidin-4-yl}oxy)piperidin-1-yl]benzamide] the “LXR alpha Activity @ max dose (%)” value [1, 3] was 33%, the EC50 [1] was 1110 nM and the Emax [2, 3] was 83%.

In the case of `COc1cccc([C@@](O)(C(=O)N2CCC(CN3CCN(c4ccc(C(=O)N(C)C)c(Cl)c4)CC3)CC2)C(F)(F)F)c1` [Example 6-4, 2-chloro-N,N-dimethyl-4-[4-({1-[(2R)-3,3,3-trifluoro-2-hydroxy-2-(3-methoxyphenyl)propanoyl]piperidin-4-yl}methyl)piperazin-1-yl]benzamide], the Emax [1, 3] is reported as 4%, the “LXR alpha IP (nM)” value [1] is reported as “NO IP” and the Emax [2, 3] is reported as 34%. The EC50 ([2]; read-out: LXR beta IP) was 192 nM.

`COc1cccc([C@@](O)(C(=O)N2CCC(CC3CCN(c4ccc(C(N)=O)c(Cl)c4)CC3)CC2)C(F)(F)F)c1` [Example 12-4, 2-chloro-4-[4-({1-[(2R)-3,3,3-trifluoro-2-hydroxy-2-(3-methoxyphenyl)-propanoyl]piperidin-4-yl}methyl)piperidin-1-yl]benzamide] was tested, and the Emax [1, 3] was 13%, the “LXR alpha IP (nM)” value [1] was “NO IP” and the Emax [2, 3] was 55%. The EC50 ([2]; read-out: LXR beta IP) was 5 nM.

In the case of `CN(C)C(=O)c1ccc(N2CCC(CC3CCN(C(=O)[C@](O)(c4cc(F)cc(F)c4)C(F)(F)F)CC3)CC2)cc1Cl` [Example 2-94, 2-chloro-4-[4-({1-[(2R)-2-(3,5-difluoro-phenyl)-3,3,3-trifluoro-2-hydroxy-propanoyl]piperidin-4-yl}methyl)piperidin-1-yl]-N,N-dimethyl-benzamide], the Emax [1, 3] is reported as 48%, the EC50 [1] is reported as 50 nM and the Emax [2, 3] is reported as 89%. For the same molecule, the EC50 ([2]; read-out: LXR beta IP) was 4 nM.

For `CN(C)C(=O)c1ccc(N2CCC(CC3CCN(C(=O)[C@](O)(c4cc(Cl)cc(Cl)c4)C(F)(F)F)CC3)CC2)cc1` [Example 2-142, 4-[4-({1-[(2R)-2-(3,5-dichloro-phenyl)-3,3,3-trifluoro-2-hydroxy-propanoyl]piperidin-4-yl}methyl)piperidin-1-yl]-N,N-dimethyl-benzamide], the “LXR alpha Activity @ max dose (%)” value [1, 3] was 4%, the “LXR alpha IP (nM)” value [1] was “NO IP” and the “LXR beta Activity @ max dose (%)” value [2, 3] was 60%. The EC50 ([2]; read-out: LXR beta IP) was 60 nM.

`CN(C)C(=O)c1ccc(N2CCC(CC3CCN(C(=O)[C@](O)(c4cccc(Cl)c4)C(F)(F)F)CC3)CC2)cc1Cl` [Example 2-86, 2-chloro-4-[4-({1-[(2R)-2-(3-chloro-phenyl)-3,3,3-trifluoro-2-hydroxy-propanoyl]piperidin-4-yl}methyl)piperidin-1-yl]-N,N-dimethyl-benzamide] showed an Emax [1, 3] of 22%, an EC50 [1] of 98 nM and an Emax [2, 3] of 68%. It also gave an EC50 ([2]; read-out: LXR beta IP) of 6 nM.

Work on `CNC(=O)c1ccc(N2CCC(CC3CCN(C(=O)[C@](O)(c4cc(F)cc(OC)c4)C(F)(F)F)CC3)CC2)nc1Cl` [Example 7-132, 2-chloro-N-methyl-6-[4-({1-[(2R)-3,3,3-trifluoro-2-(3-fluoro-5-methoxyphenyl)-2-hydroxypropanoyl]piperidin-4-yl}methyl)piperidin-1-yl] pyridine-3-carboxamide] yielded an Emax [1, 3] of 22%, an EC50 [1] of 75 nM and an Emax [2, 3] of 124%. The EC50 ([2]; read-out: LXR beta IP) was 5 nM.

In the case of `COc1cccc(C(O)(C(=O)N2CCC(CCC3CCN(c4ccc(C(=O)N(C)C)c(Cl)c4)CC3)CC2)C(F)(F)F)c1` (centres unmarked) [Example 2-163, 2-chloro-N,N-dimethyl-4-[4-(2-{1-[3,3,3-trifluoro-2-hydroxy-2-(3-methoxyphenyl)propanoyl]piperidin-4-yl}ethyl)piperidin-1-yl]benzamide], the Emax [1, 3] is reported as 0%, the “LXR alpha IP (nM)” value [1] is reported as “NO IP” and the Emax [2, 3] is reported as 39%. The EC50 ([2]; read-out: LXR beta IP) was 728 nM.

For `CN(C)C(=O)c1ccc(N2CCC(CC3CCN(C(=O)[C@@](O)(c4cccc(F)c4)C(F)(F)F)CC3)CC2)nc1Cl` [Example 7-73, 2-chloro-N,N-dimethyl-6-[4-({1-[(2S)-3,3,3-trifluoro-2-(3-fluorophenyl)-2-hydroxypropanoyl]piperidin-4-yl}methyl)piperidin-1-yl]pyridine-3-carboxamide], the Emax [1, 3] was 47%, the EC50 [1] was 922 nM and the Emax [2, 3] was 128%. The EC50 ([2]; read-out: LXR beta IP) was 47 nM.
